Source: ChEMBL document CHEMBL1156452, “Minocycline down-regulates MHC II expression in microglia and macrophages through inhibition of IRF-1 and protein kinase C (PKC)alpha/betaII” (J Biol Chem, 2007)
Active and inactive are the calls of the source. No cut-off for these calls is given here.

Key:
Macrophage [1] = experiment: Inhibition of MHC2 expression in Sprague-Dawley rat peritoneal macrophages at 1.3 uM after 24 hrs by immunostaining; format: functional, cell-based
Rattus norvegicus [2] = organism: Rattus norvegicus; experiment: Suppression of IFN-gamma-induced PKCalpha/beta2 nuclear translocation in Sprague-Dawley rat primary microglial cells at 1.3 uM by Western blotting
[3] = target: T1, Interferon regulatory factor 1 (Rattus norvegicus) (UniProt P23570); experiment: Suppression of IFN-gamma-induced IFN-gamma regulatory factor 1 nuclear translocation in Sprague-Dawley rat primary microglial cells at 1.3 uM by Western blotting
T1 sequence (whole entry): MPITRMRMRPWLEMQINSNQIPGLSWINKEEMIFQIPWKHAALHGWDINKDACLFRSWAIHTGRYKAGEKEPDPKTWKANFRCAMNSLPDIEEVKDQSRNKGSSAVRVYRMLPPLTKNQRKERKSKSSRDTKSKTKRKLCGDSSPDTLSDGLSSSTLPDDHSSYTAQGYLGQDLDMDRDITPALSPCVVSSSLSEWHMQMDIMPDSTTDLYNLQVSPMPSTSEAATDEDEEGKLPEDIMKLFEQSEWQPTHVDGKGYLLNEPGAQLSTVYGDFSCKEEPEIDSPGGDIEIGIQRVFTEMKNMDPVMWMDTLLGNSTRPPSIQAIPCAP

[4] = target: Protein kinase C beta type (Homo sapiens, UniProt P05771); experiment: Inhibition of PKCbeta1
[5] = Decrease in IFN-gamma-induced MHC2 protein levels in Sprague-Dawley rat primary microglial cells at 1.3 uM by Western blotting; format: functional, Microglia; design: scale not given: the % may be the effect or the level left
[6] = Decrease in IFN-gamma-induced MHC2 expression in Sprague-Dawley rat primary microglial cells at 1.3 uM; format: cell-based; design: scale not given: the % may be the effect or the level left; conditions: Microglia
Microglia = experiment: Inhibition of IFN-gamma-induced IFN-gamma regulatory factor levels in Sprague-Dawley rat primary microglial cells by Western blotting; format: functional, cell-based
[7] = target: Protein kinase C alpha type (Homo sapiens, UniProt P17252); experiment: Inhibition of PKCalpha
Rattus norvegicus [8] = organism: Rattus norvegicus; experiment: Suppression of IFN-gamma-induced PKCalpha/beta2 nuclear translocation in Sprague-Dawley rat primary microglial cells at 100 uM by Western blotting
[9] = target: Protein kinase C alpha type (Rattus norvegicus) (UniProt P05696); experiment: Decrease in PKCalpha phosphorylation in Sprague-Dawley rat peritoneal macrophages at 100 uM after 24 hrs
Rattus norvegicus [10] = experiment: Decrease in accumulation of CD11b+ cells in spinal cord of dark agouti rat experimental allergic encephalomyelitis model at 45 mg/kg, ip administered twice a day at the first day of clinical signs and once a day for 14 days by immunostaining; format: functional; design: scale not given: the % may be the effect or the level left; conditions: route intraperitoneal
Macrophage [11] = experiment: Inhibition of MHC2 expression in Sprague-Dawley rat peritoneal macrophages at 100 uM after 24 hrs by immunostaining; format: functional, cell-based
[12] = Decrease in IFN-gamma-induced MHC2 protein levels in Sprague-Dawley rat primary microglial cells at 100 uM by Western blotting; format: functional, Microglia; design: scale not given: the % may be the effect or the level left
[13] = Decrease in IFN-gamma-induced MHC2 expression in Sprague-Dawley rat primary microglial cells at 100 uM; format: functional, cell-based; design: scale not given: the % may be the effect or the level left; conditions: Microglia
Rattus norvegicus [14] = experiment: Decrease in number of MOG-induced inflammatory lesions in spinal cord of dark agouti rat experimental allergic encephalomyelitis model at 45 mg/kg, ip administered twice a day at the first day of clinical signs and once a day for 14 days by hematoxylin and eosin staining; format: functional, organism-based; design: dose 45 mg/kg
Rattus norvegicus [15] = experiment: Decrease in accumulation of MHC 2+ cells in spinal cord of dark agouti rat experimental allergic encephalomyelitis model at 45 mg/kg, ip administered twice a day at the first day of clinical signs and once a day for 14 days by immunostaining; format: functional; design: scale not given: the % may be the effect or the level left; conditions: route intraperitoneal
[16] = target: T1, Interferon regulatory factor 1 (Rattus norvegicus); experiment: Suppression of IFN-gamma-induced IFN-gamma regulatory factor 1 nuclear translocation in Sprague-Dawley rat primary microglial cells at 100 uM by Western blotting
[17] = Decrease in IFN-gamma-induced CIITA mRNA expression in Sprague-Dawley rat primary microglial cells at 100 uM after 24 hrs by RT-PCR; format: functional, cell-based; conditions: Microglia
Rattus norvegicus [18] = organism: Rattus norvegicus; experiment: Reduction in IFN-gamma-induced PKCalpha/beta2 phosphorylation in Sprague-Dawley rat primary microglial cells at 100 uM by Western blotting
[19] = Decrease in IFN-gamma-induced MHC2 mRNA levels in Sprague-Dawley rat primary microglial cells at 100 uM after 24 hrs by RT-PCR; format: functional, Microglia; design: scale not given: the % may be the effect or the level left
Rattus norvegicus [20] = experiment: Decrease in size of MOG-induced inflammatory lesions in spinal cord of dark agouti rat experimental allergic encephalomyelitis model at 45 mg/kg, ip administered twice a day at the first day of clinical signs and once a day for 14 days by hematoxylin and eosin staining; format: functional, organism-based; design: dose 45 mg/kg

Chain of Protein kinase C beta type (P05771 whole entry): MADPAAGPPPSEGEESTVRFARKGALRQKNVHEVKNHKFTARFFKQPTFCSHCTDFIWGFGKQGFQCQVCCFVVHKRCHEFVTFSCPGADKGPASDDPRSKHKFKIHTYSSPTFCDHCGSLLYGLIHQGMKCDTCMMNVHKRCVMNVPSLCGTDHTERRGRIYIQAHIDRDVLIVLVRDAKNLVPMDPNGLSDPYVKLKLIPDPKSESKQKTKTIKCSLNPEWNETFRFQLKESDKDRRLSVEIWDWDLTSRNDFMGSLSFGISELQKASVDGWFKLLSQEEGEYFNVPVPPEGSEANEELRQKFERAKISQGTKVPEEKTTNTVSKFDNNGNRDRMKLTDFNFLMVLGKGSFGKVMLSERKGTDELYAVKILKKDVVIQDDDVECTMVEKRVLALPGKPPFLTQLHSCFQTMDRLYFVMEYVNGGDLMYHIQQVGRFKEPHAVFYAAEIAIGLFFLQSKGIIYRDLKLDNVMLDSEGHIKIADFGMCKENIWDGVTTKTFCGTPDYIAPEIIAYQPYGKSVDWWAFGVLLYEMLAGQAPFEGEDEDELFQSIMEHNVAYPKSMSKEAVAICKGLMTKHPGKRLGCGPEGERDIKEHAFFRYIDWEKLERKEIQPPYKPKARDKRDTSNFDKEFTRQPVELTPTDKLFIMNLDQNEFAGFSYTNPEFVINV

## Cn1c2ccccc2c2c3c(c4c5ccccc5n(CCC#N)c4c21)CNC3=O [GO-6976]
Macrophage [1]
  Activity: Active
Rattus norvegicus [2]
  Activity: Active
[3]
  Activity: Active
[4]
  IC50: 6.2 nM
[5]
  Activity: 80%
[6]
  Activity: 55%
Microglia
  Activity: Active
[7]
  IC50: 2.3 nM

## CN(C)c1ccc(O)c2c1C[C@H]1C[C@H]3[C@H](N(C)C)C(O)=C(C(N)=O)C(=O)[C@@]3(O)C(O)=C1C2=O [MINOCYCLINE]
Rattus norvegicus [8]
  Activity: Active
[9]
  Activity: Active
Rattus norvegicus [10]
  Activity: 24%
Macrophage [11]
  Activity: Active
[12]
  Activity: 47%
[13]
  Activity: 55%
Rattus norvegicus [14]
  Activity: Active
Rattus norvegicus [15]
  Activity: 42%
[16]
  Activity: Active
[17]
  Activity: Active
Rattus norvegicus [18]
  Activity: Active
[19]
  Activity: 45%
Rattus norvegicus [20]
  Activity: Active
